Data: patent publication US8859550B2, “Heterocyclic inhibitors of histamine receptors for the treatment of disease” (Kalypsys, Inc., priority 2011, dated 2014)
Like-named read-outs stand apart in the source and are kept apart here.

Legend:
[1] = biological target: T1, human H4 (Homo sapiens, UniProt Q9H3N8); test: In vitro histamine receptor cell-based assay (aequorin bioluminescence), agonist mode; conditions: CHO-K1 cells expressing human H4; test compound alone, without added histamine
T1 construct: host or cells: CHO-K1
Procedure: (§1) The cell-based assays utilize an aequorin dependent bioluminescence signal. Doubly-transfected, stable CHO-K1 cell lines expressing human H4, or H1, mitochondrion-targeted aequorin, and (H4 only) human G protein Gα16 are obtained from Perkin-Elmer. Cells are maintained in F12 (Ham's) growth medium, containing 10% (vol./vol.) fetal bovine serum, penicillin (100 IU/mL), streptomycin (0.1 mg/mL), zeocin (0.25 mg/mL) and geneticin (0.40 mg/mL). Cell media components are from Invitrogen, Inc. One day prior to assay, the growth medium is replaced with the same, excluding zeocin and geneticin. In some assays, cells previously frozen at “ready to use density” are thawed and immediately available for loading with coelenterazine-h dye as described below. […]
(§2) Just before assay, the dye-loaded cells are diluted to 1.5×10^6 cells/mL (H4 receptor) or 0.75×10^6 cells/mL (H1 receptor) with additional assay medium. […] Assay plates are then transferred to a Lumilux bioluminescence plate reader (Perkin-Elmer) equipped with an automated 1536 disposable tip pipette. The pipette dispenses 3 μL/well of agonist (histamine, at twice the final concentration, where final concentration is a previously determined EC80) in assay medium, with concurrent bioluminescence detection. […] Efficacy is measured as a percentage of positive control activity.

[2] = biological target: T1, human H4; test: In vitro histamine receptor cell-based assay (aequorin bioluminescence), antagonist mode; conditions: CHO-K1 cells expressing human H4, aequorin and Gα16; histamine at EC80
Procedure: as §1, §2

[3] = test system: BALB/c mice; test: Model of allergic rhinitis in Balb/C mice, whole-body plethysmography; assay type: in vivo; set-up: key: +: increase in RF over positive control; −: no increase in RF over positive control; conditions: 0.1%, w/v, intranasal instillation 10 μl in each nostril 2.5 hours prior to OVA; day 4 (early phase)
Text: Female BALB/c mice, 6-12 weeks of age, were obtained from Jackson Laboratories (Bar Harbor, Me.). All experimental animals used in this work were under a protocol approved by the Institutional Animal Care and Use Committee of the National Jewish Medical and Research Center, Denver, Colo.
The assay protocol is similar to that described in Miyahara, S. et al. (2005), J Allergy Clin Immunol., 116:1020-1027. The role of the H4 receptor in this model has been validated [Shiraishi, Y. et al. (2009), J Allergy Clin Immunol., 123:556]. Briefly, mice received intraperitoneal injections of 20 μg ovalbumin (OVA, Grade V; Sigma-Aldrich, St. Louis, Mo.), previously emulsified in 2.25 mg of alum (AlumImuject; Pierce, Rockford, Ill.) in a total volume of 100 μL (sensitization phase). Injections occurred on days 0 and 14. […] On day 4 (early phase) and day 7 (late phase) after starting OVA challenges, respiratory frequency (RF) was measured in conscious animals by single chamber restrained whole-body plethysmography (WBP) [Buxco Research Systems, Troy, N.Y.]. […] After whole-body plethysmography on day 7, nasal airflow impedance was measured as described (RNA, see Methods section for Miyahara S. et al. [above] in the online supplemental material at the Journal of Allergy and Clinical Immunology: www.jacionline.org), using a custom-designed ventilator (Flexivent; Scireq, Montreal, Quebec, Canada). […]

[4] = In-situ salt formation screen (filtrate solubility); assay type: physicochemical; conditions: thermodynamic from solid, read-out: Filtrate Solubility
[5] = Gravimetric Vapor Sorption (GVS); assay type: physicochemical; conditions: 25° C.
Procedure: GVS: GVS experiments were conducted on a SurfaceMeasurement Systems DVS-HT at 25° C. The instrument was operated in step mode and the relative humidity (RH) was increased in 10% RH increments from 40% RH to 90% RH, then decreased from 90% RH to 0% RH, then increased a second time from 0% RH to 90% RH, then decreased from 90% RH to 0% RH. An extra step at 75% RH was included in each cycle. The mass equilibrium criterion was set at 0.005% change in mass over time (dm/dt). A minimum step time of 10 minutes and a maximum step time of 240 minutes were specified.

[6] = Solubility in aqueous acetate buffer (80 mM); assay type: physicochemical; conditions: aqueous acetate buffer (80 mM) at pH3.5-4.5
[7] = Solid state form conversion on storage at ambient conditions; assay type: physicochemical; conditions: solid state, ambient conditions
Text: Two crystal forms of Compound 1 Mesylate Salt were obtained from these experiments. Compound 1 Mesylate Salt, Form 1 is a monomesylate reversible monohydrate solid state form that was obtained from ten of the twelve crystallization experiments conducted. […] Compound 1 Mesylate Salt Form 2 was obtained by slow evaporation of gummy solids at ambient temperature in two of twelve screening experiments. Compound 1 Mesylate Salt Form 2 was obtained as a mixture of Form 1 and Form 2 in one of twelve crystallization experiments.
A Compound 1 Mesylate salt form screen was conducted involving about 160 crystallization experiments in 48 solvents and aqueous mixtures was performed conducted as previously described (vide supra). Compound 1 Mesylate Salt Form 1, the reversible monohydrate initially discovered in during the crystallization experiments cited above, was obtained from a variety of solvents and crystallization conditions, including 25 slurry-ripening, six cooling, 16 evaporative and four vapor diffusion experiments. […] Samples of Compound 1, Mesylate Salt Forms 2-5 converted to Compound 1 Mesylate Salt Form 1 in solid state within one week at ambient conditions.

[8] = Equilibrium solubility study; assay type: physicochemical; conditions: for solubility thermodynamic: thermodynamic from solid, read-out: Filtrate Concentration (equilibrium solubility)
Procedure: Equilibrium solubility experiments were conducted for Compound 2 Monohydrochloride Form 1, Compound 2 Monomesylate Form 1 and Compound 2 Monocitrate Form 1 salts in water and pH-5 acetate buffer solution. The results of the equilibrium solubility study are summarized in Table 26 (where “a” indicates FTIR and PXRD spectra of both samples were distinctly different from the known forms of Compound 2 or Compound 2 Monocitrate salt Form 1).

T1 sequence (Q9H3N8 whole entry): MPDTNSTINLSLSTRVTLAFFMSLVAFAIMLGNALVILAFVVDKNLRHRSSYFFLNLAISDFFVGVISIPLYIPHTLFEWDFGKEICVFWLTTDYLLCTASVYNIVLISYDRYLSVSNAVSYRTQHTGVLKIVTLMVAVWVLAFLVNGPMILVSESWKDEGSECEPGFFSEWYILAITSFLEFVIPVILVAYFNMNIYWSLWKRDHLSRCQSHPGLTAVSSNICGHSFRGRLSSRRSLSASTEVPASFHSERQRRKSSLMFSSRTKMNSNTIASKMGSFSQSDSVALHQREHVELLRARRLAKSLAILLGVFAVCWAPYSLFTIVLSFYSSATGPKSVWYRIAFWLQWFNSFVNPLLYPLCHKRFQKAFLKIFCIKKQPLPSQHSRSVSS

CNC1CN(c2ncc(-c3cccs3)n3nnnc23)C1 [Compound 2, N-methyl-1-(5-(thiophen-2-yl)tetrazolo[1,5-a]pyrazin-8-yl)azetidin-3-amine]
EC50 [1]: > 100 µM | EC50 [2]: ≤ 10 µM | WBP, Day 4 (respiratory frequency, RF) [3]: + | solubility at 48 h ([4]; aqueous buffer, 0.1M aqueous Acetic Acid, filtrate pH 5.41, No Solids Isolated): > 24500 µg/mL | solubility at 48 h ([4]; aqueous buffer, 0.1M aqueous Citric Acid, filtrate pH 3.69, filtrant Salt): 4270 µg/mL | solubility at 48 h ([4]; aqueous buffer, 0.1M aqueous L-Aspartic Acid, filtrate pH 4.95, No Solids Isolated): > 18400 µg/mL | solubility at 48 h ([4]; aqueous buffer, 0.1M aqueous L-Glutamic Acid, filtrate pH 5.46, filtrant Free Base): 10400 µg/mL | solubility at 48 h ([4]; aqueous buffer, 0.1M aqueous L-Malic Acid, filtrate pH 5.13, No Solids Isolated): > 21100 µg/mL | solubility at 48 h ([4]; aqueous buffer, 0.1M aqueous L-Tartaric Acid, filtrate pH 3.23, filtrant Salt): 1390 µg/mL | solubility at 48 h ([4]; aqueous buffer, 0.1M aqueous Mesic Acid, filtrate pH 2.28, No Solids Isolated): > 25300 µg/mL | solubility at 48 h ([4]; aqueous buffer, 0.1M aqueous Phosphoric Acid, filtrate pH 4.8, filtrant Salt): 740 µg/mL | solubility at 48 h ([4]; aqueous buffer, 0.1M aqueous Succinic Acid, filtrate pH 4.75, filtrant Salt): 100 µg/mL | solubility at 48 h ([4]; aqueous buffer, 0.1M aqueous Sulfuric Acid, filtrate pH 1.42, filtrant Salt): 610 µg/mL | solubility at 48 h ([4]; simulated gastric fluid, 0.1M aqueous Hydrochloric Acid, filtrate pH 2.32, filtrant Salt): 15200 µg/mL

CN1CCN(c2ncc(-c3cccs3)n3nnnc23)CC1 [Compound 1, 8-(4-Methylpiperazin-1-yl)-5-(thiophen-2-yl)tetrazolo[1,5-a]pyrazine]
EC50 [1]: > 100 µM | EC50 [2]: ≤ 10 µM | WBP, Day 4 (respiratory frequency, RF) [3]: + | solubility at 48 h ([4]; aqueous buffer, 0.1M aqueous Acetic Acid, filtrate pH 4.02, filtrant Free Base): 7990 µg/mL | solubility at 48 h ([4]; aqueous buffer, 0.1M aqueous Citric Acid, filtrate pH 3.11, filtrant Salt): 1750 µg/mL | solubility at 48 h ([4]; aqueous buffer, 0.1M aqueous L-Glutamic Acid, filtrate pH 4.28, filtrant Free Base): 6750 µg/mL | solubility at 48 h ([4]; aqueous buffer, 0.1M aqueous L-Malic Acid, filtrate pH 4.15, filtrant Salt): 13400 µg/mL | solubility at 48 h ([4]; aqueous buffer, 0.1M aqueous L-Tartaric Acid, filtrate pH 3.48, filtrant Salt): 8690 µg/mL | solubility at 48 h ([4]; aqueous buffer, 0.1M aqueous Mesic Acid, filtrate pH 1.49, No Solids Isolated): 20000 µg/mL | solubility at 48 h ([4]; aqueous buffer, 0.1M aqueous Phosphoric Acid, filtrate pH 1.76, filtrant Salt): 870 µg/mL | solubility at 48 h ([4]; aqueous buffer, 0.1M aqueous Succinic Acid, filtrate pH 4.13, filtrant Free Base): 10400 µg/mL | solubility at 48 h ([4]; aqueous buffer, 0.1M aqueous Sulfuric Acid, filtrate pH 1.39, filtrant Salt): 560 µg/mL | solubility at 48 h ([4]; pH 4.2, aqueous buffer, 0.1M aqueous L-Aspartic Acid, filtrate pH 4.20, filtrant Free Base): 8640 µg/mL | solubility at 48 h ([4]; simulated gastric fluid, 0.1M aqueous Hydrochloric Acid, filtrate pH 1.25, filtrant Salt): 990 µg/mL

CN1CCN(c2ncc(-c3cccs3)n3nnnc23)CC1.CS(=O)(=O)O [Compound 1 Mesylate Salt Form 1, 8-(4-Methylpiperazin-1-yl)-5-(thiophen-2-yl)tetrazolo[1,5-a]pyrazine Mesylate Monohydrate]
hygroscopicity (GVS) [5]: not hydroscopic | GVS loss of water ([5]; below 20% RH): ~4.30% | GVS water content ([5]; between 20-90% RH): ~4.3% | improvement in solubility over Compound 1 [6]: > 5 fold | crystal form stability [7]: the most, and the only, stable crystal form | solubility thermodynamic ([8]; 0.2 M acetate buffer, pH 5, aqueous buffer, 0.2M Acetate Buffer (pH5), final pH 4.17, residual solid Free Base): 58200 µg/mL | Filtrate Concentration (equilibrium solubility) ([8]; Water, final pH 3.51, Dissolved, Mesylate Monohydrate): >100000 µg/mL | solubility thermodynamic ([8]; water, pH 3.51, water, Water, final pH 3.51, Dissolved): > 100000 µg/mL | solubility ([8]; water, aqueous): > 100000 µg/mL
